Results: patent US8349365B2, “Cellooligosaccharide-containing composition” (priority 2005, dated 2013)

Columns and labels:
[1] = system: rough skin, inner side of the forearm; assay: transepidermal water loss (TEWL) recovery test; format: in vivo, human
Description: The barrier function in the present invention is expressed by the recovery-promoting rate of transepidermal water loss, and the recovery-promoting rate of transepidermal water loss of the agent for improving barrier function of the present invention is preferably 10% or higher. The recovery-promoting rate referred to herein is expressed by a decreasing rate of relative transepidermal water loss of the cellooligosaccharide-containing composition to a relative transepidermal water loss of purified water using a relative transepidermal water loss 2 hours after applications of the aqueous cellooligosaccharide solution and a relative transepidermal water loss obtained from purified water to the rough skin. This value is obtained by the following expression. Recovery-promoting rate(%)=([relative transepidermal water loss of water)−[relative transepidermal water loss of cellooligosaccharide-containing composition]/(relative transepidermal water loss of water)×100
Furthermore, a relative value of the above-mentioned transepidermal water loss (relative transepidermal water loss) can be measured by transepidermal water loss (TEWL) in the rough skin. First, the inner side of the forearm (test site) is wiped with 70% ethanol and habituated in a room with a constant temperature and a humidity (room temperature 22° C., humidity 45%) for 15 minutes, and the test site is measured with a 2-channel moisture loss monitor (manufactured by Asahi Biomed, TW-AS type to obtain the initial TEWL value (TEWEL0). Then, after measurement of the initial TEWL, the test site is washed with water, the test site is coated with 2% by mass of sodium dodecylsulfate (SDS, by a closed patch and washed with water using a Finn chamber (manufactured by Epitest), and then TEWL (TSWL rough skin) is measured in the same manner as described above. Then purified water or the aqueous cellooligosaccharide solution of the present invention is applied to the same site, and TEWL at the site is measured 2 hours after application (TEWL2) by the above-described method. […]

[2] = oil retention (rapeseed oil); format: physicochemical; details: same manner as in Example 4
Description: The oil retention of the cellooligosaccharide composition of the present invention is preferably 0.9 g/g. The term “oil retention” means the amount of oil absorbed per 1 g of powder measured by placing 2 g of a cellooligosaccharide composition on a glass plate, kneading powder with a spatula while adding rapeseed oil (Nissin Canola Oil, dropwise using a pipette, and using the point at which oil soaks out of the powder surface as the end point and is expressed by Oil retention (g/g)=amount of oil absorption (g)/amount of cellooligosaccharide composition (g). A greater value is preferable because separation or soaking out of oil, semisolid or liquid can be prevented when a food, a cosmetic, a drug, or a quasi-drug is produced with a prescription containing oil or a prescription containing a semisolid or a liquid at room temperature. The oil retention is more preferably in the range of 1.0 g/g and higher, particularly preferably in the range of 1.1 g/g and higher.

OC[C@H]1O[C@H](OC[C@H]2O[C@H](O[C@]3(CO)O[C@H](CO)[C@@H](O)[C@@H]3O)[C@H](O)[C@@H](O)[C@@H]2O)[C@H](O)[C@@H](O)[C@H]1O [compound 9, raffinose]
relative TEWL value after 2 hours ([1]; SDS-treated forearm skin of 3 male and 2 female subjects, rough skin taken as 100, 2 hours after application): 42.1% | TEWL RECOVERY-PROMOTING RATE AFTER 2 HOURS ([1]; relative to purified water, 2 hours after application): −7.1%

OC[C@H]1O[C@H](OC[C@H]2O[C@H](O[C@]3(CO)O[C@H](CO)[C@@H](O)[C@@H]3O)[C@H](O)[C@@H](O)[C@@H]2O)[C@H](O)[C@@H](O)[C@H]1O [compound 13, raffinose]
relative TEWL value ([1]; measured in the same manner as in Examples 19 to 23, 5% by mass): 42.1%

OC[C@H]1O[C@@H](O[C@H]2[C@H](O)[C@@H](O)[C@H](O)O[C@@H]2CO)[C@H](O)[C@@H](O)[C@@H]1O [D-cellobiose]
oil retention [2]: 0.85
